# From article PMC4580985, “Calcium ions open a selectivity filter gate during activation of the MthK potassium channel” (Nature Communications, 2015)
# Molecular target: T1, MthK (Methanothermobacter thermautotrophicus, UniProt O27564)
# T1 construct: MthK channel with pore and cytosolic gating ring (RCK), purified in decyl maltoside, Superdex 200, reconstituted in DOPC:POPG 3:1 liposomes
# Assay: stopped-flow Tl+ flux (ANTS quench) in MthK liposomes, blocker equilibration time course
# Assay type: biochemical
# Details: read-out: KD^ap
# Excerpt: stopped-flow Tl+ flux (ANTS quench) in MthK liposomes, blocker equilibration time course on MthK
row,SMILES,Kd
1,"CCCC[N+](CCCC)(CCCC)Cc1ccc(Br)cc1 [Br-bTBA, 4-bromobenzyltributylammonium bromide]",2600 ± 400 nM
2,CCCCC[N+](CCCCC)(CCCCC)CCCCC [TPeA],2100 ± 200 nM
3,"CCCC[N+](CCCC)(CCCC)Cc1ccc(C(=O)c2ccccc2)cc1 [bbTBA, N-(4-[benzoyl]benzyl)-N,N,N-tributylammonium]",700 ± 200 nM
